# Columns and labels:
# [1] = test system: Human Hepatocellular Carcinoma (HepG2); test: MTT cytotoxicity, HepG2; format: cell-based; details: growth inhibition
# Text: (§1) Human promyelocytic leukemia (HL-60), human hepatocellular carcinoma (HepG2), Human cervix epitheloid carcinoma cells (HeLa) and human oral epidermoid carcinoma cells (KB-3-1), were obtained from American Type Culture Collection (ATCC) (Rockville, Md.). The multi-drug-resistant variant KB-V1 cell line was obtained by stepwise selections for vinblastine resistance as described by Shen et al., J. Biol. Chem. 261:7762-7770 (1986)], and was generously provided by Dr Michael Gottesman (NIH, Bethesda, Md.). Human nasopharyngeal carcinoma cells (SUNE1 and its cisplatin resistance variant, CNE1) were derived from poorly differentiated NPC in Chinese patients as described by Gu et al., Chin. J. Cancer 2:270-272 (1983), and were generously provided by Dr S. W. Tsao (The University of Hong Kong, Hong Kong, PRC). Cell culture flasks and 96 well microtitre plates were from Nalge Nunc hit. Culture medium, other medium constituents and phosphate buffered saline (PBS) were obtained from Gibco BRL (Rockville, Md.). Cell Proliferation Kit I (MTT) was purchased from Roche (Mannheim, Germany).
# (§2) The anti-cancer activities of the gold(III) porphyrin complexes were evaluated toward some established human cancer cell lines: promyelocytic leukemia (HL-60), hepatocellular carcinoma (HepG2), cervix epitheloid carcinoma (HeLa), epidermoid carcinoma (KB-3-1) and its multi-drug resistant variant (KB-V1), nasopharyngeal carcinoma (SUNE1) and its cisplatin-resistant variant (CNE1). The experiments were carried out by following the MTT procedure (see Mosmann et al., J. Immunol. Methods 65:55-63 (1983). The IC50 values of the gold(III) porphyrin complexes together with that of cisplatin, and KAuCl4 are provided in Table 4a; and the IC50 values of the gold(III) Schiff-base and bis(pyridyl)carboxamide complexes are shown in Table 4b. The cytotoxicity profiles of some selected gold(III) porphyrin complexes toward SUNE1 and its cisplatin-resistant variant CNE1 are also shown in FIG. 7.
# calf thymus DNA [2] = test: UV-vis absorption titration with calf thymus DNA; format: binding; details: for hypochromicity / intrinsic binding constant (Kb): Tris buffer
# Experimental: The calf thymus DNA was purchased from Sigma-Aldrich Chemical Co. and was purified by phenol-chloroform extraction. The DNA was dissolved in buffer (5 mM Tris, 5 mM NaCl, pH 7.2). The concentration (per base pair) of calf thymus DNA was determined spectrophotometrically on the basic of ε260, 13,200 M^−1cm^−1bp.
# Absorption Titration. The binding interaction of the gold(III) porphyrins to duplex DNA has been studied by UV-vis spectroscopy.
# where [ctDNA] is the concentration of DNA, Δεap═|εA−εB| in which εA=Aobs/[complex], and Δε=|εB−εF|. εB and εF correspond to the extinction coefficient of DNA-bound gold(III) porphyrin and the free gold(III) porphyrins, respectively.
# The effect of temperature on the intrinsic binding constants was investigated. Using the van't Hoff equation (2): […]
# [3] = test system: Human Nasopharyngeal Carcinoma (SUNE1); test: MTT cytotoxicity, SUNE1; format: cell-based
# Text: (§3) Human promyelocytic leukemia (HL-60), human hepatocellular carcinoma (HepG2), Human cervix epitheloid carcinoma cells (HeLa) and human oral epidermoid carcinoma cells (KB-3-1), were obtained from American Type Culture Collection (ATCC) (Rockville, Md.). […] Cell culture flasks and 96 well microtitre plates were from Nalge Nunc hit. Culture medium, other medium constituents and phosphate buffered saline (PBS) were obtained from Gibco BRL (Rockville, Md.). Cell Proliferation Kit I (MTT) was purchased from Roche (Mannheim, Germany).
# [4] = Control UV-vis titration with sodium dodecyl sulfate instead of DNA; format: binding; details: sodium dodecyl sulfate (0-5 μM) instead of DNA
# Text: See Neidle, S. DNA structure and recognition; Oxford University Press: Oxford, 1994; 74-79.
# [5] = test system: Human Nasopharyngeal Carcinoma (cisplatin resistance, CNE1); test: MTT cytotoxicity, CNE1; format: cell-based
# Text: as §3
# [6] = test system: Human Promyelocytic Leukemia (HL-60); test: MTT cytotoxicity, HL-60; format: cell-based; details: growth inhibition
# Text: as §1, §2
# [7] = test system: Human Cervix Epitheloid Carcinoma (HeLa); test: MTT cytotoxicity, HeLa; format: cell-based
# Text: as §3
# plasmid DNA (pDR2) = test: Restriction endonuclease (ApaI) fragmentation assay; details: comparison compounds, lanes F and H of FIG. 8
# Text: Binding of the metalloporphyrin onto a duplex DNA such as plasmid DNA (pDR2) is expected to occupy the binding site of the restriction enzyme ApaI, thereby inhibiting the enzymatic DNA digestion. See Ikeda et al., J. Am. Chem. Soc. 104:296-297 (1982).
# After ApaI digestion, (lane B), three bands corresponding to 6.6, 4.4 and 2.0 kbp were observed.
# calf thymus DNA [8] = test: Viscosity evaluation of DNA; details: (η/ηo)^1/3 vs binding ratio r
# Text: Viscosity evaluation. The binding interaction of the gold(III) porphyrins can be further investigated by examining the change of DNA viscosity upon binding of the metalloporphyrin. If the metalloporphyrin binds to DNA by intercalation, this would cause chain elongation, unwinding and stiffening of the DNA helix as a consequence of untwisting of the base pairs and helical backbone needed to accommodate the intercalator.
# For comparison, the viscosity profiles for ethidium bromide (intercalator) and Hoechst 33342 (minor groove binder) are also shown is FIG. 10.
# [9] = target: T1, HIV-1 reverse transcriptase (Human immunodeficiency virus type 1 group M subtype B, UniProt P04585); test: HIV-1 reverse transcriptase activity, ELISA method; format: biochemical; details: drug concentration fixed at 6 μM
# T1 construct: treatment of HIV-1 RT in Lysis buffer (2 ng, 128.7 μL) with Complex 1j
# Experimental: HIV-1 reverse transcriptase activities were measured by an ELISA method (see Eberle et al, J. Virol. Methods, 40:347-356 (1992) performed by incubating the enzyme with digoxigenin-labeled deoxyuridin-5′-triphosphate (dUTP) and the biotin-labeled analogue during reverse transcription starting from the template/primer hybrid poly(A)•oligo(dT)15. After reverse transcription, the newly synthesized DNA was immobilized onto streptavidin-coated ELISA wells, and the incorporation of the dioxigenin-labeled dUTP was assayed by chemiluminescence method. For example, treatment of HIV-1 RT in Lysis buffer (2 ng, 128.7 μL) with Complex 1j (1.3 μL of […] stock solution) dissolved in TBS at 37° C. produced significant RT activity inhibition (˜95%) after 30 min incubation.
# [10] = test system: human cancer cell lines (HL-60, HepG2, HeLa, KB-3-1, KB-V1, SUNE1, CNE1); format: cell-based; details: killing oral epidermoid and nasopharyngeal cancer cells
# Text: as §1, with “Cell Proliferation Kit I (MTT) was purchased from Roche (Mannheim, Germany).” left out
# The anti-cancer activities of the gold(III) porphyrin complexes were evaluated toward some established human cancer cell lines: promyelocytic leukemia (HL-60), hepatocellular carcinoma (HepG2), cervix epitheloid carcinoma (HeLa), epidermoid carcinoma (KB-3-1) and its multi-drug resistant variant (KB-V1), nasopharyngeal carcinoma (SUNE1) and its cisplatin-resistant variant (CNE1). […]
# HeLa cells = test: Flow cytometry annexin V/propidium iodide apoptosis assay; format: cell-based, human; details: after treatment (Complex 1a 6 and 15 h; straurosporine 15 h)
# Text: Flow cytometry: The gold(III) porphyrin-induced apoptosis of the HeLa cell line has been further examined by flow cytometry. During the early phase of apoptosis, cells lose the asymmetry of their membrane phospholipids, although the integrity of the cell membrane is maintained. A negatively charged phospholipid, named phosphatidylserine (PS), which is located in the inner part of the plasma membrane, becomes exposed to the cell surface. A phospholipid-binding protein, annexin V (green emissive upon binding), with high affinity binds preferentially to PS. Apoptotic cells therefore can be stained by annexin V before the dying cell changes its morphology and hydrolyzes its DNA. On the other hand, both DNA and the PS would be exposed for necrotic cells. In this case, propidium iodide (PI, red emissive upon binding), can be used to stain selectively the naked DNA. Therefore, both apoptotic and necrotic cells can be discriminated after adding these two staining reagents. For apoptotic cells, only annexin V would stain; for necrotic cells, both annexin V and PI would stain.
# For comparison, a control cell culture experiment was performed in the absence of Complex 1a and straurosporine. […] Throughout the flow cytometric experiment, <1% of necrotic cells were observed.
structure (smiles),measurement,setting,value
Fc1c(F)c(F)c(-c2c3nc(c(-c4c(F)c(F)c(F)c(F)c4F)c4ccc([n-]4)c(-c4c(F)c(F)c(F)c(F)c4F)c4nc(c(-c5c(F)c(F)c(F)c(F)c5F)c5ccc2[n-]5)C=C4)C=C3)c(F)c1F.[Au+3].[Cl-] [Complex 1g],IC50,[1],2310 nM
same,hypochromicity,calf thymus DNA [2]; 291.8 K,18.2%
same,intrinsic binding constant (Kb),calf thymus DNA [2]; 291.8 K,0.73 × 10^6 dm^3mol^−1
same,hypochromicity,calf thymus DNA [2]; 297.6 K,18.0%
same,intrinsic binding constant (Kb),calf thymus DNA [2]; 297.6 K,0.58 × 10^6 dm^3mol^−1
same,hypochromicity,calf thymus DNA [2]; 301.4 K,16.5%
same,intrinsic binding constant (Kb),calf thymus DNA [2]; 301.4 K,0.47 × 10^6 dm^3mol^−1
same,hypochromicity,calf thymus DNA [2]; 306.1 K,10.1%
same,intrinsic binding constant (Kb),calf thymus DNA [2]; 306.1 K,0.42 × 10^6 dm^3mol^−1
same,hypochromicity,calf thymus DNA [2]; 311.7 K,8.7%
same,intrinsic binding constant (Kb),calf thymus DNA [2]; 311.7 K,0.34 × 10^6 dm^3mol^−1
same,ΔH°,"calf thymus DNA [2]; binding to calf thymus DNA, van't Hoff analysis",−7.0 ± 0.4 kcalmol^−1
same,ΔG° (298 K),"calf thymus DNA [2]; binding to calf thymus DNA, van't Hoff analysis, 298 K",−7.8 ± 0.5
same,IC50 ratio [cisplatin/gold (III) porphyrin complexes] SUNE1,[3],5.97
same,IC50,"[3]; MTT, growth inhibition",2110 nM
same,bathochromic shift,[4],6 nm
same,hypochromicity of the Soret band,[4],48%
same,IC50 ratio [cisplatin/gold (III) porphyrin complexes] CNE1,[5],28.1
same,IC50,"[5]; MTT, growth inhibition, cisplatin resistant",1450 nM
same,IC50,[6],1450 nM
same,IC50 ratio [cisplatin/gold (III) porphyrin complexes] HeLa,[7],3.52
same,IC50,"[7]; MTT, growth inhibition",3180 nM
"CCOc1ccc(-c2nc3ccc(-c4nc5ccc(N6CCN(C)CC6)cc5[nH]4)cc3[nH]2)cc1 [Hoechst 33342, reference compound]",effect on ApaI digestion of pDR2,plasmid DNA (pDR2),complete inhibition of the DNA digestion
same,change in viscosity of the DNA,calf thymus DNA [8],no appreciable change in viscosity of the DNA
"[Au+3].[Cl-].[Cl-].[Cl-].[Cl-].[K+] [KAu^IIICl4, reference compound]",HIV-1 RT inhibition,[9],48%
same,times less potent than Complex 1a,[10],about 40 times
"CN[C@@H]1C[C@H]2O[C@@](C)([C@@H]1OC)n1c3ccccc3c3c4c(c5c6ccccc6n2c5c31)C(=O)NC4 [straurosporine, reference compound]",annexin V emission,HeLa cells,the magnitude of the annexin V emission was enhanced
